Assay results taken from ChEMBL document CHEMBL1142090, “Substrate competition studies using whole-cell accumulation assays with the major tripartite multidrug efflux pumps of Escherichia coli” (2007).
The source made the active and inactive calls. The rule behind the calls is not given here.

Tests used:
Escherichia coli [1] = test: Antibacterial activity against Escherichia coli AG102MB after 24 hrs; type: functional
Escherichia coli [2] = test: Antibacterial activity against Escherichia coli AG102 with marR1 mutation after 24 hrs; type: functional; conditions: AG102, 24 h
Escherichia coli [3] = test: Antibacterial activity against Escherichia coli HNCE4 after 24 hrs; type: functional; conditions: HNCE4, 24 h
Escherichia coli [4] = test: Effect on modulation in uptake of [3H]progesterone in Escherichia coli AG102MB; type: functional, organism-based
Escherichia coli [5] = test: Effect on modulation in uptake of [3H]progesterone in Escherichia coli HNCE4; type: functional, organism-based
Escherichia coli [6] = test: Effect on modulation in uptake of [3H]testosterone in Escherichia coli AG102 with marR1 mutation; type: functional, organism-based
Escherichia coli [7] = test: Effect on modulation in uptake of [3H]hydrocortisone in Escherichia coli AG102 with marR1 mutation; type: functional, organism-based
Escherichia coli [8] = test: Increase in [3H]testosterone uptake in Escherichia coli AG102 at 100 uM; type: functional, organism-based
Escherichia coli [9] = test: Increase in [3H]testosterone uptake in Escherichia coli HNCE4 at 100 uM; type: functional, organism-based
Escherichia coli [10] = test: Increase in [3H]testosterone uptake in Escherichia coli AG102MB at 100 uM; type: functional, organism-based

| SMILES | MIC (Escherichia coli [1]) | MIC (Escherichia coli [2]) | MIC (Escherichia coli [3]) | also measured |
| --- | --- | --- | --- | --- |
| CN(C)[C@@H]1C(O)=C(C(N)=O)C(=O)[C@@]2(O)C(O)=C3C(=O)c4c(O)cccc4[C@@](C)(O)[C@H]3C[C@@H]12 [TETRACYCLINE] | 2 µg/mL | 8 µg/mL | 2 µg/mL |  |
| CC[C@H]1OC(=O)[C@H](C)[C@@H](O[C@H]2C[C@@](C)(OC)[C@@H](O)[C@H](C)O2)[C@H](C)[C@@H](O[C@@H]2O[C@H](C)C[C@H](N(C)C)[C@H]2O)[C@](C)(O)C[C@@H](C)/C(=N\OCOCCOC)[C@H](C)[C@@H](O)[C@]1(C)O [ROXITHROMYCIN] | 64 µg/mL | 512 µg/mL | 128 µg/mL |  |
| O=C(O)c1cn(C2CC2)c2cc(N3CCNCC3)c(F)cc2c1=O [CIPROFLOXACIN] | 0.0625 µg/mL | > 0.25 µg/mL | 0.0625 µg/mL | Activity (Escherichia coli [4]): Active; Activity (Escherichia coli [5]): Active |
| CC[C@H]1OC(=O)[C@H](C)[C@@H](O[C@H]2C[C@@](C)(OC)[C@@H](O)[C@H](C)O2)[C@H](C)[C@@H](O[C@@H]2O[C@H](C)C[C@H](N(C)C)[C@H]2O)[C@](C)(O)C[C@@H](C)[C@@H]2N[C@@H](COCCOC)O[C@H]([C@H]2C)[C@]1(C)O [DIRITHROMYCIN] | 16 µg/mL | 256 µg/mL | 16 µg/mL |  |
| C[C@H](CCC(=O)O)[C@H]1CC[C@H]2[C@@H]3[C@H](O)C[C@@H]4C[C@H](O)CC[C@]4(C)[C@H]3C[C@H](O)[C@]12C [CHOLIC ACID] | 4000 µg/mL | 16000 µg/mL | 2000 µg/mL |  |
| O=C(N[C@H](CO)[C@H](O)c1ccc([N+](=O)[O-])cc1)C(Cl)Cl [CHLORAMPHENICOL] | 2 µg/mL | 8 µg/mL | > 128 µg/mL |  |
| CCCCCCCCCCCCOS(=O)(=O)[O-].[Na+] [SODIUM LAURYL SULFATE] | 62.5 µg/mL | 1000 µg/mL | 125 µg/mL | Activity (Escherichia coli [6]): Active; Activity (Escherichia coli [7]): Active |
| CC[C@H]1OC(=O)C[C@@H](O)[C@H](C)[C@@H](O[C@@H]2O[C@H](C)[C@@H](O[C@H]3C[C@@](C)(O)[C@@H](O)[C@H](C)O3)[C@H](N(C)C)[C@H]2O)[C@@H](CC=O)C[C@@H](C)C(=O)/C=C/C(C)=C/[C@@H]1CO[C@@H]1O[C@H](C)[C@@H](O)[C@@H](OC)[C@H]1OC [TYLOSIN] | 128 µg/mL | > 512 µg/mL | 64 µg/mL |  |
| N#CC(C#N)=NNc1cccc(Cl)c1 [CARBONYL CYANIDE M-CHLOROPHENYLHYDRAZONE] | 32 µM | 128 µM | 16 µM | Activity (Escherichia coli [8]): Active; Activity (Escherichia coli [9]): Active; Activity (Escherichia coli [10]): Active |
| CC[C@H]1OC(=O)[C@H](C)[C@@H](O[C@H]2C[C@@](C)(OC)[C@@H](O)[C@H](C)O2)[C@H](C)[C@@H](O[C@@H]2O[C@H](C)C[C@H](N(C)C)[C@H]2O)[C@](C)(O)C[C@@H](C)C(=O)[C@H](C)[C@@H](O)[C@]1(C)O [ERYTHROMYCIN] | 4 µg/mL | 128 µg/mL | 8 µg/mL | Activity (Escherichia coli [4]): Active; Activity (Escherichia coli [5]): Active |
| CC(=O)O[C@H]1C[C@@]2(C)[C@@H](C[C@@H](O)[C@H]3[C@@]4(C)CC[C@@H](O)[C@@H](C)[C@@H]4CC[C@@]32C)/C1=C(\CCC=C(C)C)C(=O)O [FUSIDIC ACID] | 16 µg/mL | > 512 µg/mL | 128 µg/mL |  |
| CC[n+]1c(-c2ccccc2)c2cc(N)ccc2c2ccc(N)cc21.[Br-] [HOMIDIUM BROMIDE] | 4 µg/mL | 256 µg/mL | 32 µg/mL |  |
| NC[C@H]1O[C@H](O[C@H]2[C@H](O)[C@@H](O[C@H]3O[C@H](CO)[C@@H](O)[C@H](N)[C@H]3O)[C@H](N)C[C@@H]2N)[C@H](O)[C@@H](O)[C@@H]1O [KANAMYCIN] | > 512 µg/mL | 8 µg/mL | > 512 µg/mL |  |
| CO[C@H]1C[C@H](O[C@H]2[C@H](C)[C@@H](O[C@@H]3O[C@H](C)C[C@H](N(C)C)[C@H]3O)[C@@H](C)C[C@@]3(CO3)C(=O)[C@H](C)[C@@H](O)[C@@H](C)[C@@H](C)OC(=O)[C@@H]2C)O[C@@H](C)[C@@H]1O [OLEANDOMYCIN] | 128 µg/mL | > 512 µg/mL | 256 µg/mL |  |
| CO[C@@H]1[C@@H](OC(N)=O)[C@@H](O)[C@H](Oc2ccc3c(O)c(NC(=O)c4ccc(O)c(CC=C(C)C)c4)c(=O)oc3c2C)OC1(C)C [NOVOBIOCIN] | 4 µg/mL | 512 µg/mL | 4 µg/mL |  |
| CN(C)c1ccc(C(=C2C=CC(=[N+](C)C)C=C2)c2ccc(N(C)C)cc2)cc1.[Cl-] [GENTIAN VIOLET] | 0.5 µg/mL | 32 µg/mL | 8 µg/mL |  |
| CO[C@@H]1[C@@H](O[C@@H]2O[C@H](C)[C@@H](O[C@H]3C[C@@](C)(O)[C@@H](OC(=O)CC(C)C)[C@H](C)O3)[C@H](N(C)C)[C@H]2O)[C@@H](CC=O)C[C@@H](C)[C@@H](O)/C=C/C=C/C[C@@H](C)OC(=O)C[C@H]1OC(C)=O [JOSAMYCIN] | 32 µg/mL | > 512 µg/mL | 4 µg/mL |  |
| COC(=O)[C@H]1[C@H]2C[C@@H]3c4[nH]c5cc(OC)ccc5c4CCN3C[C@H]2C[C@@H](OC(=O)c2cc(OC)c(OC)c(OC)c2)[C@@H]1OC [RESERPINE] | 128 µg/mL | 256 µg/mL | 128 µg/mL |  |
| CC1(C)S[C@@H]2[C@H](NC(=O)[C@H](N)c3ccccc3)C(=O)N2[C@H]1C(=O)O [AMPICILLIN] | 16 µg/mL | 32 µg/mL | 16 µg/mL |  |
